This note sets out measurements from ChEMBL document CHEMBL1201862, “PubChem BioAssay data set” (2004).

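Cells were grown in 96-well plates and exposed to each compound for 48 hours at five concentrations; endpoints were interpolated linearly between bracketing concentrations, or set to the highest concentration if not reached. At the GI50, growth is halved.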 Active and inactive are the calls of the source. No stated cut-off is given here; in the data, active = GI50 up to about 1.1 µM and inactive = higher. Some results are limits rather than exact numbers.

Common to all, as to assay: NCI tumour cell line growth inhibition, 48 h
Assay [1] relates to COLO 205.
In assay [2] the test system is DU-145.
In assay [3] the test system is HCT-15.
In assay [4] the test system is HOP-92.
Assay [5] has as its system HT-29.
The test system of assay [6] is Hs-578T.
The test system of assay [7] is K562.
In assay [8] the test system is KM12.
For assay [9], the system named is M14.
In assay [10] the test system is MDA-MB-231.
In assay [11] the test system is NCI-H522.
The subject of assay [12] is NCI/ADR-RES.
Assay [13] deals with OVCAR-8.
Assay [14] relates to SF-539.
Assay [15] concerns SK-MEL-5.
Assay [16] concerns SW-620.
Assay [17] relates to A498.
Assay [18] relates to SK-MEL-28.
Assay [19] relates to SNB-75.
In assay [20] the test system is SR.

On to `CC(=O)/C(=C\NC(=S)Nc1ccc(S(N)(=O)=O)cc1)C(=O)Nc1ccccc1C`, for which the GI50 was 18.5 µM (inactive) in [1]; 57.7 µM (inactive) in assay [2]; 41.3 µM in assay [3]; 37.3 µM (inactive) in assay [4]; 45.2 µM (inactive) in assay [5]; 61.8 µM (inactive) in assay [6]. Further, the GI50 was 32.4 µM (inactive) in assay [7]; 43.3 µM (inactive) in assay [8]; 37.8 µM (inactive) in assay [9]; 34.2 µM (inactive) in assay [10]; 41.7 µM (inactive) in assay [11]; > 100 µM (inactive) in [12]. The GI50 in assay [13] is 72.9 µM (inactive); in assay [14] it was 74 µM (inactive); in assay [15], 44 µM (inactive); in [16], 37.4 µM (inactive).

For the compound `O=C(NN1C(=O)/C(=C/c2ccc(Cl)cc2)N=C1c1ccccc1)c1c(Cl)c(Cl)c(Cl)c(Cl)c1-c1nc2ccccc2[nH]1`, the GI50 is 12.9 µM (inactive) in [17]; 22.6 µM (inactive) in [1]; 17.7 µM (inactive) in assay [2]; 9.62 µM in assay [3]; 11.6 µM (inactive) in assay [4]; 27.4 µM (inactive) in assay [5]. The GI50 in [6] was 13.5 µM (inactive); in assay [7], 4.28 µM (inactive); in [8] it was 4.15 µM (inactive); in assay [9], 17.3 µM (inactive); in assay [11], 18.2 µM (inactive); in assay [12], 15.3 µM (inactive). Besides, the GI50 was 27.9 µM (inactive) in [13]; 23.8 µM (inactive) in assay [14]; 20.3 µM (inactive) in assay [18]; 19.7 µM (inactive) in assay [15]; 12.2 µM (inactive) in [19]; 3.58 µM (inactive) in assay [20]. Further, in [16], the GI50 is 20.6 µM (inactive).

With `CC1(CCC2C=CCC2)CCCNC1=S` (stereo not given), the GI50 was > 10 µM (inactive) in assay [17]; > 10 µM (inactive) in assay [2]; greater than 10 µM in assay [3]; > 10 µM (inactive) in [4]; > 10 µM (inactive) in assay [5]; > 10 µM (inactive) in [6]. Also, the GI50 in [7], in assay [8], in [9], in assay [10], in [13] and in assay [14] was > 10 µM (inactive) each time. Moreover, the GI50 in assay [18], in assay [15], in assay [19], in assay [20] and in [16] was > 10 µM (inactive) in each case.

On to `COC(=O)CCCC1(CCCC(=O)OC)CCCCCCCCC(CCCC(=O)OC)(CCCC(=O)OC)C(=O)C1=O`, for which the GI50 in assay [17] was > 100 µM (inactive); in assay [1], > 100 µM (inactive); in assay [2], > 100 µM (inactive); in [3], greater than 100 µM; in assay [4] it was 20.6 µM (inactive); in assay [5], 43.5 µM (inactive). In addition, the GI50 is 14.8 µM (inactive) in [6]; 4.78 µM (inactive) in assay [7]; 38.8 µM (inactive) in assay [8]; 70.1 µM (inactive) in [9]; 2.24 µM (inactive) in assay [11]; 40.2 µM (inactive) in assay [12]. In addition, the GI50 in [13] was 50.7 µM (inactive); in [14], 25.2 µM (inactive); in [18] it was > 100 µM (inactive); in assay [15], 53.1 µM (inactive); in assay [19], 23.9 µM (inactive); in assay [20], 20.4 µM (inactive). For the same compound, the GI50 in assay [16] was > 100 µM (inactive).

Take `CCOP(=O)(C=C=C(C)C)OCC`: the GI50 was > 100 µM (inactive) in assay [17]; > 100 µM (inactive) in [1]; > 100 µM (inactive) in [2]; greater than 100 µM in assay [3]; > 100 µM (inactive) in assay [4]; > 100 µM (inactive) in [5]. Further, the GI50 in assay [6] was > 100 µM (inactive); in [7] it was > 100 µM (inactive); in assay [8], > 100 µM (inactive); in assay [9] it was > 100 µM (inactive); in assay [11], 36.4 µM (inactive); in [12], > 100 µM (inactive). The GI50 in assay [13], in [14], in assay [18], in assay [15], in assay [19] and in assay [20] was > 100 µM (inactive) in each case. Also, the GI50 in assay [16] was > 100 µM (inactive).

`NC(=S)N/N=c1\cc(C(=O)Nc2ccc([N+](=O)[O-])cc2[N+](=O)[O-])oc2ccccc12`: the GI50 in assay [1] is > 100 µM (inactive); in [2], > 100 µM (inactive); in assay [3], greater than 100 µM; in [4] it was 43.5 µM (inactive); in [5] it was > 100 µM (inactive); in assay [6] it was > 100 µM (inactive). The GI50 in [8], in [9], in assay [10], in assay [11], in assay [12] and in assay [13] was > 100 µM (inactive) each time. In addition, the GI50 in [14], in assay [18], in [15], in assay [19] and in [16] was > 100 µM (inactive) in each case.

`COc1cc(CC(C)N)ccc1O` (stereo not given): the GI50 was > 100 µM (inactive) in [17]; > 100 µM (inactive) in [1]; > 100 µM (inactive) in assay [2]; greater than 100 µM in assay [3]; > 85.9 µM (inactive) in [4]; > 100 µM (inactive) in [5]. Also, the GI50 in assay [6], in assay [7], in assay [8], in assay [9], in assay [11] and in assay [12] was > 100 µM (inactive) in each case. Moreover, the GI50 in assay [13], in assay [14], in [18], in assay [15], in assay [19] and in assay [20] was > 100 µM (inactive) in each case. Further, in assay [16], the GI50 was > 100 µM (inactive).

`COc1cc(C2c3cc4c(cc3[C@@H](Nc3ccc(F)cc3)C3COC(=O)[C@H]23)OCO4)cc(OC)c1O` (stereo not given in full): the GI50 was 1.89 µM (inactive) in assay [17]; 2.03 µM (inactive) in assay [1]; 0.368 µM (active) in assay [2]; 3.56 µM in assay [3]; 2.91 µM (inactive) in assay [4]; 3.41 µM (inactive) in assay [5]. For the same compound, the GI50 in assay [7] is 3.87 µM (inactive); in assay [8] it was 3.77 µM (inactive); in assay [9], 2.56 µM (inactive); in assay [10], 4.33 µM (inactive); in assay [11], 2.88 µM (inactive); in assay [12], 3.97 µM (inactive). Besides, the GI50 is 2.53 µM (inactive) in assay [13]; 1.86 µM (inactive) in assay [14]; 7.69 µM (inactive) in assay [18]; 1.78 µM (inactive) in assay [15]; 1.91 µM (inactive) in [19]; 0.106 µM (active) in assay [20]. Further, the GI50 in assay [16] is 1.69 µM (inactive).
